Measurements published in publication PMC10046961, “High-Throughput Screening Assay for Detecting Drug-Induced Changes in Synchronized Neuronal Oscillations and Potential Seizure Risk Based on Ca^2+ Fluorescence Measurements in Human Induced Pluripotent Stem Cell (hiPSC)-Derived Neuronal 2D and 3D Cultures” (Cells, 2023).
Read-outs that look alike come from different tables or passages of the source.

What was measured:
[1] = ref PharmaPendium, cited from earlier work
[2] = system: hiPSC-derived neurons co-cultured with human primary astrocytes in 2D; assay: Ca2+ transient oscillation assay (FDSS), 2D co-culture; assay type: cell-based; conditions: for effect on peak number / Ca2+ neuronal oscillations, in words: 2D format; for activation at 0.11 µM / activation at 0.33 µM / activation at 1 µM / activation at 3 µM / activation at 0.04 µM: Homo sapiens, 1 h, 60 min
In short: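 hiPSC-derived excitatory neurons (CW50065, Quick-Neuron EX-SeV) co-cultured with human primary astrocytes at 4:1 (10,000:2500 cells per well). Cal-520-loaded cells in HBSS with 2 mM CaCl2 and 10 mM HEPES were pretreated with 0.04% DMSO.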

[3] = system: hiPSC-derived neurons co-cultured with human primary astrocytes in 3D; assay: Ca2+ transient oscillation assay (FDSS), 3D spheroids; assay type: cell-based; conditions: for Area under the curve - 3D Mean / Peak Number—3D Mean / Peak amplitude - 3D Mean / Peak width - 3D Mean / Peak-to-peak interval - 3D Mean: 60 min
In short: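 Fura-2 fluorescence was read twice for 20 min each: a baseline 10 min after 0.04% DMSO, and again 60 min after compound addition at nominal final concentration. The 3D co-cultures (1:1 hiPSC neurons from a donor and human astrocytes, 8000 each) matured 5 weeks in BrainPhys medium after a 1-week differentiation.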

[4] = Table 1, peak plasma concentration in men, free therapeutic Cmax
[5] = Table 2, highest plasma concentration in humans after the therapeutic dose
[6] = read-out: Area under the curve - 2D Mean
[7] = read-out: Peak amplitude - 2D Mean
[8] = read-out: Peak-to-peak interval - 2D Mean

Q: Which results are given for `Clc1ccc2c(c1)C(N1CCNCC1)=Nc1ccccc1O2` [Amoxapine]?
A: Free Cmax [1, 4]: 40 to 600 nM; Free Cmax [1, 5]: 40 to 600 nM; effect on peak number / Ca2+ neuronal oscillations, in words [2]: significantly reduced peak number; activation at 0.11 µM [2, 6]: 27.8%; activation at 0.11 µM ([2]; read-out: Peak Number—2D Mean): -5.2%; activation at 0.11 µM [2, 7]: 7.7%; activation at 0.11 µM ([2]; read-out: Peak width - 2D Mean): 22%; activation at 0.11 µM [2, 8]: 8.8%; activation at 0.33 µM [2, 6]: 25.3%; activation at 0.33 µM ([2]; read-out: Peak Number—2D Mean): 25.3%; activation at 0.33 µM [2, 7]: 12.7%; activation at 0.33 µM ([2]; read-out: Peak width - 2D Mean): 14.8%; activation at 0.33 µM [2, 8]: -7.8%; activation at 1 µM [2, 6]: 22.8%; activation at 1 µM ([2]; read-out: Peak Number—2D Mean): 12.5%; activation at 1 µM [2, 7]: -1.5%; activation at 1 µM ([2]; read-out: Peak width - 2D Mean): 31.7%; activation at 1 µM [2, 8]: -4.5%; activation at 3 µM [2, 6]: -40.8%; activation at 3 µM ([2]; read-out: Peak Number—2D Mean): -35.3%; activation at 3 µM [2, 7]: -20.7%; activation at 3 µM ([2]; read-out: Peak width - 2D Mean): -37.7%; activation at 3 µM [2, 8]: 56.7%; Area under the curve - 3D Mean ([3]; 0.11 µM): 122.7 % change from baseline; Peak Number—3D Mean ([3]; 0.11 µM): −10.1 % change from baseline; Peak amplitude - 3D Mean ([3]; 0.11 µM): 92.4 % change from baseline; Peak width - 3D Mean ([3]; 0.11 µM): 11.9 % change from baseline; Peak-to-peak interval - 3D Mean ([3]; 0.11 µM): 14.8 % change from baseline; Area under the curve - 3D Mean ([3]; 0.33 µM): 130.2 % change from baseline; Peak Number—3D Mean ([3]; 0.33 µM): −2.2 % change from baseline; Peak amplitude - 3D Mean ([3]; 0.33 µM): 101.9 % change from baseline; Peak width - 3D Mean ([3]; 0.33 µM): 12.5 % change from baseline; Peak-to-peak interval - 3D Mean ([3]; 0.33 µM): 7.1 % change from baseline; Area under the curve - 3D Mean ([3]; 1 µM): 124.0 % change from baseline; Peak Number—3D Mean ([3]; 1 µM): −10.8 % change from baseline; Peak amplitude - 3D Mean ([3]; 1 µM): 102.7 % change from baseline; Peak width - 3D Mean ([3]; 1 µM): 6.8 % change from baseline; Peak-to-peak interval - 3D Mean ([3]; 1 µM): 4.4 % change from baseline; Area under the curve - 3D Mean ([3]; 3 µM): 148.1 % change from baseline; Peak Number—3D Mean ([3]; 3 µM): −7.5 % change from baseline; Peak amplitude - 3D Mean ([3]; 3 µM): 105.1 % change from baseline; Peak width - 3D Mean ([3]; 3 µM): 21.0 % change from baseline; Peak-to-peak interval - 3D Mean ([3]; 3 µM): −6.6 % change from baseline; effect on peak number of oscillations, in words ([3]; 3D-cultured): did not significantly change the peak number

Q: With `CN1CCN(C2=Nc3cc(Cl)ccc3Nc3ccccc32)CC1` [Clozapine] as the compound, how does the “Free Cmax” value [1, 4] read?
A: The value was 300 nM.

Q: And the “Free Cmax” value [1, 5]?
A: Its value is 300 nM.

Q: What about the “effect on peak number / Ca2+ neuronal oscillations, in words” value [2] of the same compound?
A: Its value is “significantly increased peak number”.

Q: What about the activation at 0.04 µM [2, 6] of the same compound?
A: The activation at 0.04 µM was 28.5%.

Q: What about the activation at 0.04 µM ([2]; read-out: Peak Number—2D Mean) of the same compound?
A: Its activation at 0.04 µM is 15.3%.

Q: What about the activation at 0.04 µM [2, 7] of the same compound?
A: The activation at 0.04 µM was 12.5%.

Q: And the activation at 0.04 µM ([2]; read-out: Peak width - 2D Mean)?
A: Its activation at 0.04 µM is 20.8%.

Q: What about the activation at 0.04 µM [2, 8] of the same compound?
A: Its activation at 0.04 µM is 1.2%.

Q: What about the activation at 0.11 µM [2, 6] of the same compound?
A: Its activation at 0.11 µM is 49%.

Q: What about the activation at 0.11 µM ([2]; read-out: Peak Number—2D Mean) of the same compound?
A: The activation at 0.11 µM was 24.2%.

Q: What about the activation at 0.11 µM [2, 7] of the same compound?
A: Its activation at 0.11 µM is 16.7%.

Q: And the activation at 0.11 µM ([2]; read-out: Peak width - 2D Mean)?
A: Its activation at 0.11 µM is 35.5%.

Q: And the activation at 0.11 µM [2, 8]?
A: Its activation at 0.11 µM is -15.5%.

Q: What about the activation at 0.33 µM [2, 6] of the same compound?
A: The activation at 0.33 µM was 28.8%.

Q: And the activation at 0.33 µM ([2]; read-out: Peak Number—2D Mean)?
A: Its activation at 0.33 µM is -15%.

Q: What about the activation at 0.33 µM [2, 7] of the same compound?
A: Its activation at 0.33 µM is 9.4%.

Q: What about the activation at 0.33 µM ([2]; read-out: Peak width - 2D Mean) of the same compound?
A: Its activation at 0.33 µM is 22.8%.

Q: What about the activation at 0.33 µM [2, 8] of the same compound?
A: Its activation at 0.33 µM is 82%.

Q: What about the activation at 1 µM [2, 6] of the same compound?
A: The activation at 1 µM was 10.8%.

Q: What about the activation at 1 µM ([2]; read-out: Peak Number—2D Mean) of the same compound?
A: The activation at 1 µM was -8.3%.

Q: And the activation at 1 µM [2, 7]?
A: Its activation at 1 µM is 1%.

Q: And the activation at 1 µM ([2]; read-out: Peak width - 2D Mean)?
A: Its activation at 1 µM is 11%.

Q: What about the activation at 1 µM [2, 8] of the same compound?
A: Its activation at 1 µM is 2.7%.

Q: What about the “Area under the curve - 3D Mean” value ([3]; 0.04 µM) of the same compound?
A: Its value is 150.1 % change from baseline.

Q: What about the “Peak Number—3D Mean” value ([3]; 0.04 µM) of the same compound?
A: Its value is 11.1 % change from baseline.

Q: And the “Peak amplitude - 3D Mean” value ([3]; 0.04 µM)?
A: Its value is 133.6 % change from baseline.

Q: What about the “Peak width - 3D Mean” value ([3]; 0.04 µM) of the same compound?
A: Its value is 6.2 % change from baseline.

Q: And the “Peak-to-peak interval - 3D Mean” value ([3]; 0.04 µM)?
A: The value was 4.5 % change from baseline.

Q: And the “Area under the curve - 3D Mean” value ([3]; 0.11 µM)?
A: Its value is 153.9 % change from baseline.

Q: What about the “Peak Number—3D Mean” value ([3]; 0.11 µM) of the same compound?
A: Its value is −10.0 % change from baseline.

Q: And the “Peak amplitude - 3D Mean” value ([3]; 0.11 µM)?
A: The value was 130.9 % change from baseline.

Q: And the “Peak width - 3D Mean” value ([3]; 0.11 µM)?
A: The value was 8.6 % change from baseline.

Q: What about the “Peak-to-peak interval - 3D Mean” value ([3]; 0.11 µM) of the same compound?
A: The value was 19.2 % change from baseline.

Q: And the “Area under the curve - 3D Mean” value ([3]; 0.33 µM)?
A: Its value is 163.3 % change from baseline.

Q: And the “Peak Number—3D Mean” value ([3]; 0.33 µM)?
A: The value was −2.8 % change from baseline.

Q: And the “Peak amplitude - 3D Mean” value ([3]; 0.33 µM)?
A: The value was 129.8 % change from baseline.

Q: What about the “Peak width - 3D Mean” value ([3]; 0.33 µM) of the same compound?
A: The value was 14.0 % change from baseline.

Q: And the “Peak-to-peak interval - 3D Mean” value ([3]; 0.33 µM)?
A: The value was 5.6 % change from baseline.

Q: And the “Area under the curve - 3D Mean” value ([3]; 1 µM)?
A: Its value is 182.8 % change from baseline.

Q: What about the “Peak Number—3D Mean” value ([3]; 1 µM) of the same compound?
A: The value was −13.9 % change from baseline.

Q: And the “Peak amplitude - 3D Mean” value ([3]; 1 µM)?
A: Its value is 129.4 % change from baseline.

Q: What about the “Peak width - 3D Mean” value ([3]; 1 µM) of the same compound?
A: The value was 22.6 % change from baseline.

Q: What about the “Peak-to-peak interval - 3D Mean” value ([3]; 1 µM) of the same compound?
A: Its value is 14.2 % change from baseline.
